One block for each compound: values may come before it.
Legend:
Type in all cases: physicochemical, human
[1] = Chilled storage stability of NAD+ and NMN in blood spotted on filter paper (DBS, LC-MS/MS); conditions: for Storage stability (mean): vs storage 0 days
Procedure: (§1) A filter paper, to which blood derived from a test subject is added (i.e., corresponding to a filter paper in Step 1 of the present invention), was searched for the optimal one for quantifying NAD+ and NMN when the filter paper with added blood derived from the test subject is stored in the refrigerator for a certain period of time.
From 5 subjects (adult men and women) per test, approximately 120 μL of blood (amount of 2 collection containers of the kit) was sampled by self-collection using an Micro Blood Collection Kit (Micro Blood Science Co., Ltd.), and was left to stand on ice until sample processing. The subjects were fasted on the morning of the sampling day, and samplings were performed around 9:00 am. The test was performed four times in total, with a total of 19 people performing evaluations, excluding one person due to insufficient sample blood volume.
The sampled blood was collected into 1.5 mL microtubes for each subject and mixed by gentle pipetting. Four types of filter papers (Whatman FTA DMPK-A Card/GE healthcare, QIAcard FTA DMPK-B Card/QIAGEN, QIAcard FTA DMPK-C Card/QIAGEN, Whatman 903 Protein saver card/Cytiva) were each spotted with 5 μL of blood (dropped/added) at multiple areas, sealed in a moisture absorption standard pouch (Moisture absorption-kun (registered trademark)/Maruto Sangyo Co., Ltd.), and stored in the refrigerator. Next, after chilled storing the blood-spotted filter paper for 2 days, 2 weeks (14 days or 15 days), or 1 month (30 days), the blood-spotted areas were cut out and collected in a 2 mL microtube. After adding 300 μL of a mixed aqueous solution of internal standard substances (NAD+-d4 and NMN-d4/Toronto Research Chemicals, Inc.) thereto and stirring using a vortex mixer, the mixture was mixed with a micromixer (TOMY MICRO TUBE MIXER MT-400, stirring speed 5) for 30 minutes at room temperature. The blood extract solution was dispensed by each 150 μL portion into a microtube, 300 μL of acetonitrile was added thereto, and the mixture was stirred using a vortex mixer, followed by centrifugation (24,250×g, 10 minutes, 4° C.). After centrifugation, 40 μL of the supernatant was dispensed into a vial and measured by LC-MS/MS.
In contrast, as a sample for initial values, 5 μL of blood was collected into a 2 mL microtube (no spotted filter paper), and 300 μL of a mixed aqueous solution of internal standard substances (NAD-d4 and NMN-d4/Toronto Research Chemicals, Inc.) was added thereto and stirred using a vortex mixer, and then the mixture was mixed using a micromixer (TOMY MICRO TUBE MIXER MT-400, stirring speed 5) for 30 minutes at room temperature. The blood extract solution was dispensed by each 150 μL portion into a microtube, 300 μL of acetonitrile was added thereto, and the mixture was stirred using a vortex mixer, followed by centrifugation (24,250×g, 10 minutes, 4° C.). After centrifugation, 40 μL of the supernatant was dispensed into a vial and measured by LC-MS/MS.

[2] = Room temperature storage stability of NAD+ and NMN in blood spotted on filter paper (DBS, LC-MS/MS); conditions: for Storage stability (mean): vs storage 0 days
Procedure: as §1, with “at room temperature” for “in the refrigerator”
A part of the blood spotted-filter paper prepared in Example 2 was sealed in a moisture absorption standard pouch (Moisture absorption-kun (registered trademark)/Maruto Sangyo Co., Ltd.) and then stored at room temperature. After storage at room temperature for 2 days, 1 week (7 days), or 2 weeks (15 days), the blood-spotted areas were cut out and collected in a 2 mL microtube. After performing the same treatment as in Example 2, measurement by LC-MS/MS was performed under the same conditions as in Example 2.

[3] = Storage stability of extract solution (frozen storage 71 days); conditions: frozen 71 days, vs storage 0 days
Excerpt: A filter paper with added blood derived from a test subject is brought into contact with a solvent (extraction buffer) to obtain the solvent after contact (hereinafter may be abbreviated as extract solution), which storage stability was investigated.
A part of the blood extract solution (100% water) from the filter paper obtained and stored in Example 2 (15 days of chilled storage) and a part of the solution for LC-MS/MS measurement (water containing 67% acetonitrile) were frozen-stored. After 71 days of frozen storage, the supernatant of the former obtained by adding twice the amount of acetonitrile thereto, mixing and centrifuging (24,250×g, 10 minutes, 4° C.), and the supernatant of the latter obtained by centrifuging (24,250×g, 10 minutes, 4° C.) the solution after storage were both measured by LC-MS/MS under the same conditions as in Example 2.

[4] = human blood on 903 card, chilled storage for 1 month
[5] = human blood on 903 card, chilled storage for 2 weeks
[6] = human blood on 903 card, chilled storage for 2 days
[7] = human blood on DMPK-A card, chilled storage for 1 month
[8] = human blood on DMPK-A card, chilled storage for 2 weeks
[9] = human blood on DMPK-A card, chilled storage for 2 days
[10] = human blood on DMPK-B card, chilled storage for 1 month
[11] = human blood on DMPK-B card, chilled storage for 2 weeks
[12] = human blood on DMPK-B card, chilled storage for 2 days
[13] = human blood on DMPK-C card, chilled storage for 2 weeks
[14] = human blood on DMPK-C card, chilled storage for 2 days
[15] = human blood on 903 card, room temperature storage for 2 days
[16] = human blood on DMPK-A card, room temperature storage for 2 weeks
[17] = human blood on DMPK-A card, room temperature storage for 2 days
[18] = human blood on DMPK-B card, room temperature storage for 1 week
[19] = human blood on DMPK-B card, room temperature storage for 2 weeks
[20] = human blood on DMPK-B card, room temperature storage for 2 days
[21] = human blood on DMPK-C card, chilled storage for 1 month
[22] = human blood on 903 card, room temperature storage for 2 weeks
[23] = human blood on DMPK-C card, room temperature storage for 2 weeks
[24] = human blood on DMPK-C card, room temperature storage for 2 days

Storage stability (mean) [1, 4]: 56.3%
Storage stability, Evaluation [1, 5]: Average: (Average (≥50%))
Storage stability (mean) [1, 5]: 64.5%
Storage stability, Evaluation [1, 6]: Average: (Average (≥50%))
Storage stability (mean) [1, 6]: 60.1%
Storage stability, Evaluation [1, 7]: Excellent: (Excellent (≥85%))
Storage stability (mean) [1, 7]: 99.9%
Storage stability, Evaluation [1, 8]: Good: (Good (≥70%))
Storage stability (mean) [1, 8]: 80.6%
Storage stability, Evaluation [1, 9]: Good: (Good (≥70%))
Storage stability (mean) [1, 9]: 73.1%
Storage stability, Evaluation [1, 10]: Good: (Good (≥70%))
Storage stability (mean) [1, 10]: 78.6%
Storage stability, Evaluation [1, 11]: Excellent: (Excellent (≥85%))
Storage stability (mean) [1, 11]: 93.6%
Storage stability, Evaluation [1, 12]: Excellent: (Excellent (≥85%))
Storage stability (mean) [1, 12]: 95.4%
Storage stability, Evaluation [1, 13]: Average: (Average (≥50%))
Storage stability (mean) [1, 13]: 52.9%
Storage stability, Evaluation [1, 14]: Average: (Average (≥50%))
Storage stability (mean) [1, 14]: 68.4%
Storage stability, Evaluation [2, 15]: Good (Good (≥70%))
Storage stability (mean) [2, 15]: 79.8%
Storage stability, Evaluation [2, 16]: Excellent: (Excellent (≥85%))
Storage stability (mean) [2, 16]: 124.2%
Storage stability, Evaluation [2, 17]: Excellent: (Excellent (≥85%))
Storage stability (mean) [2, 17]: 122.7%
Storage stability, Evaluation [2, 18]: Average: (Average (≥50%))
Storage stability (mean) [2, 18]: 69.1%
Storage stability, Evaluation [2, 19]: Average: (Average (≥50%))
Storage stability (mean) [2, 19]: 66.6%
Storage stability, Evaluation [2, 20]: Excellent: (Excellent (≥85%))
Storage stability (mean) [2, 20]: 96.5%
Structure (SMILES): NC(=O)c1ccc[n+]([C@@H]2O[C@H](COP(=O)([O-])O)[C@@H](O)[C@H]2O)c1 [NMN, nicotinamide mononucleotide]

Storage stability, Evaluation [1, 4]: Good: (Good (≥70%))
Storage stability (mean) [1, 4]: 82.6%
Storage stability, Evaluation [1, 5]: Good: (Good (≥70%))
Storage stability (mean) [1, 5]: 77.2%
Storage stability, Evaluation [1, 6]: Good: (Good (≥70%))
Storage stability (mean) [1, 6]: 74.1%
Storage stability, Evaluation [1, 7]: Good: (Good (≥70%))
Storage stability (mean) [1, 7]: 71.8%
Storage stability, Evaluation [1, 8]: Good: (Good (≥70%))
Storage stability (mean) [1, 8]: 79.1%
Storage stability, Evaluation [1, 9]: Good: (Good (≥70%))
Storage stability (mean) [1, 9]: 81.5%
Storage stability, Evaluation [1, 10]: Good: (Good (≥70%))
Storage stability (mean) [1, 10]: 79.8%
Storage stability, Evaluation [1, 11]: Excellent: (Excellent (≥85%))
Storage stability (mean) [1, 11]: 87.8%
Storage stability, Evaluation [1, 12]: Good: (Good (≥70%))
Storage stability (mean) [1, 12]: 80.7%
Storage stability, Evaluation [1, 21]: Average: (Average (≥50%))
Storage stability (mean) [1, 21]: 54.3%
Storage stability, Evaluation [1, 13]: Average: (Average (≥50%))
Storage stability (mean) [1, 13]: 66.6%
Storage stability, Evaluation [1, 14]: Good: (Good (≥70%))
Storage stability (mean) [1, 14]: 70.1%
Storage stability, Evaluation [2, 22]: Average (Average (≥50%))
Storage stability (mean) [2, 22]: 50.3%
Storage stability, Evaluation [2, 15]: Average (Average (≥50%))
Storage stability (mean) [2, 15]: 66.2%
Storage stability, Evaluation [2, 16]: Average: (Average (≥50%))
Storage stability (mean) [2, 16]: 51.6%
Storage stability, Evaluation [2, 17]: Good: (Good (≥70%))
Storage stability (mean) [2, 17]: 71.6%
Storage stability, Evaluation [2, 18]: Excellent: (Excellent (≥85%))
Storage stability (mean) [2, 18]: 87.2%
Storage stability, Evaluation [2, 19]: Average: (Average (≥50%))
Storage stability (mean) [2, 19]: 67.6%
Storage stability, Evaluation [2, 20]: Good: (Good (≥70%))
Storage stability (mean) [2, 20]: 82.0%
Storage stability, Evaluation [2, 23]: Average (Average (≥50%))
Storage stability (mean) [2, 23]: 50.2%
Storage stability, Evaluation [2, 24]: Average (Average (≥50%))
Storage stability (mean) [2, 24]: 55.9%
Storage stability (mean) ([3]; 903 card chilled 15 days, extract solution 100% water): 266.3%
Storage stability (mean) ([3]; 903 card chilled 15 days, extract solution with twice the amount of acetonitrile added): 92.1%
Storage stability (mean) ([3]; DMPK-A card chilled 15 days, extract solution 100% water): 145.8%
Storage stability (mean) ([3]; DMPK-A card chilled 15 days, extract solution with twice the amount of acetonitrile added): 89.6%
Storage stability (mean) ([3]; DMPK-B card chilled 15 days, extract solution 100% water): 93.1%
Storage stability (mean) ([3]; DMPK-B card chilled 15 days, extract solution with twice the amount of acetonitrile added): 100.0%
Storage stability (mean) ([3]; DMPK-C card chilled 15 days, extract solution 100% water): 200.6%
Storage stability (mean) ([3]; DMPK-C card chilled 15 days, extract solution with twice the amount of acetonitrile added): 73.6%
Structure (SMILES): NC(=O)c1ccc[n+]([C@@H]2O[C@H](COP(=O)([O-])OP(=O)(O)OC[C@H]3O[C@@H](n4cnc5c(N)ncnc54)[C@H](O)[C@@H]3O)[C@@H](O)[C@H]2O)c1 [NAD+, nicotinamide adenine dinucleotide]
